In BindingDB's records for doi:10.1021/jm0101085 (University of North Carolina, 2001):

Legend:
Tubulin alpha-1A chain [1] = target: T1, Tubulin alpha-1A chain (Sus scrofa, UniProt P02550); assay: Inhibition of colchicine binding(ICB). Tubulin concentration was 1 uM
Tubulin alpha-1A chain [2] = target: T1, Tubulin alpha-1A chain; assay: Inhibition of colchicine binding(ICB). [3H]colchicine concentration was 5 uM
Tubulin alpha-1A chain [3] = target: T1, Tubulin alpha-1A chain; assay: Percent inhibition of colchicine binding(ICB) at 5 uM [3H]colchicine concentration

T1 sequence (P02550 whole entry, looked up): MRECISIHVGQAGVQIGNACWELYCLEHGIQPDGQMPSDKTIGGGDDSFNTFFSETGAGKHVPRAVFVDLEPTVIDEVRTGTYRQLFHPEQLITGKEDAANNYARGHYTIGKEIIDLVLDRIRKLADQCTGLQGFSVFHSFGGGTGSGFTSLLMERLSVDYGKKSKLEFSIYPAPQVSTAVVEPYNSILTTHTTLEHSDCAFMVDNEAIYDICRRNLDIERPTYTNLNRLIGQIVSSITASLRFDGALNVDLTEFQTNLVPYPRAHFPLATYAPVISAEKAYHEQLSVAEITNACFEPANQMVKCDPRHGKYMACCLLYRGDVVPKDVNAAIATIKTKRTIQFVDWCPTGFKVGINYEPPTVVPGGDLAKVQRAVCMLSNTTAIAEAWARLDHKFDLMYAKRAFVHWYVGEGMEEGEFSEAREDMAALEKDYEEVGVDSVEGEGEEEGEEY

Row | Compound | Inhibition (Tubulin alpha-1A chain [1]) [%] | Inhibition (Tubulin alpha-1A chain [2]) [%] | Inhibition (Tubulin alpha-1A chain [3]) [%]
1 | Oc1cc(-c2ccccc2F)nc2ccc(N3CCCC3)cc12 [2-(2-fluorophenyl)-6-(pyrrolidin-1-yl)quinolin-4(1H)-one] | 76 | 93 | 
2 | Oc1cc(-c2ccccc2F)nc2cc3c(cc12)OCO3 [2-(2-fluorophenyl)-6,7-methylenedioxyquinolin-4-one] |  |  | 39
